Results as given in ChEMBL document CHEMBL1158571, “Antiplasmodial lanostanes from the Ganoderma lucidum mushroom” (J Nat Prod, 2010).
Calls of active or inactive are those of the source. No cut-off for these calls is given here.

What follows are compounds tested on Plasmodium falciparum (assay: Antiplasmodial activity against Plasmodium falciparum at 20 uM).
Format: functional, organism-based

SMILES	Activity
CC(C)=CCC/C(C)=C/CCC(C(=O)O)c1cc2cc(O)ccc2o1 (stereo not drawn)	inactive
C/C(=C/CC[C@@H](C)[C@H]1CC[C@@]2(C)C3=C(CC[C@]12C)[C@@]1(C)CCC(=O)C(C)(C)[C@@H]1CC3=O)C(=O)O	inactive

The compounds below were run on Plasmodium falciparum (assay: Antiplasmodial activity against Plasmodium falciparum).
Format: functional, organism-based

SMILES	IC50
C/C(=C/CC[C@@H](C)[C@H]1C[C@H](O)[C@@]2(C)C3=CC[C@H]4C(C)(C)C(=O)CC[C@]4(C)C3=CC[C@]12C)C(=O)O [GANODERIC ACID TR]	20 µM
C/C(=C/C(O)C[C@@H](C)[C@H]1CC[C@@]2(C)C3=CC[C@H]4C(C)(C)C(O)CC[C@]4(C)C3=CC[C@]12C)C(=O)O (stereo partly drawn)	11 µM
C/C(C=O)=C/CC[C@@H](C)[C@H]1C[C@H](O)[C@@]2(C)C3=CC[C@H]4C(C)(C)C(=O)CC[C@]4(C)C3=CC[C@]12C [GANODERIC ALDEHYDE TR]	6 µM
C[C@H](CC[C@@H](O)C(C)(C)O)[C@H]1CC[C@@]2(C)C3=CC[C@H]4C(C)(C)C(=O)CC[C@]4(C)C3=CC[C@]12C [GANODERMANONDIOL]	13 µM
C/C(=C/CC[C@@H](C)[C@H]1CC[C@@]2(C)C3=CC[C@H]4C(C)(C)C(=O)CC[C@]4(C)C3=CC[C@]12C)C(=O)O [GANODERIC ACID S]	11 µM
C/C(=C\CC[C@@H](C)[C@H]1C[C@@H](O)[C@@]2(C)C3=CC[C@H]4C(C)(C)C(=O)CC[C@]4(C)C3=CC[C@]12C)C(=O)O [GANODERIC ACID TR 1]	18 µM
